{"source": "ChEMBL document CHEMBL1124489", "about": "“Synthesis and thromboxane synthetase inhibitory activity of di- or tetrahydrobenzo[b]thiophenecarboxylic acid derivatives” (J Med Chem, 1989)", "key": {"[1]": {"system": "Oryctolagus cuniculus", "test": "Protection against sodium arachidonate induced sudden death in rabbit, 1 hr after peroral administration", "assay_type": "functional", "settings": "po"}, "[2]": {"biological_target": "T1, Thromboxane-A synthase (Rattus norvegicus) (UniProt P49430)", "T1 sequence (whole entry)": "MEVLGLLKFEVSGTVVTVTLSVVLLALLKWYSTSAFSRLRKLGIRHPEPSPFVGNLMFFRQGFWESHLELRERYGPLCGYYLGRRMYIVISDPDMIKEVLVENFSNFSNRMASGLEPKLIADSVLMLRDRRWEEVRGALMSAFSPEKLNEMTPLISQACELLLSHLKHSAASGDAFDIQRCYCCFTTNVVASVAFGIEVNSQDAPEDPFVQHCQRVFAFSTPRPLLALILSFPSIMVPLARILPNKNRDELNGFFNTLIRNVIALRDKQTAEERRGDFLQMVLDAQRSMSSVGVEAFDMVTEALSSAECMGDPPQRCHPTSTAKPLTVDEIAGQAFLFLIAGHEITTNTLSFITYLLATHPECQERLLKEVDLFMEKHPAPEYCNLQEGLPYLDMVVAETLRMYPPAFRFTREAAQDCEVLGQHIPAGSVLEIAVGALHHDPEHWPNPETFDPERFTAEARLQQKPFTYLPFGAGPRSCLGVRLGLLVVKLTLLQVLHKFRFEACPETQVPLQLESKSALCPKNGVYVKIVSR", "settings": "Serum"}, "[3]": {"biological_target": "T2, Thromboxane-A synthase (Homo sapiens, UniProt P24557)", "T2 sequence (P24557 whole entry)": "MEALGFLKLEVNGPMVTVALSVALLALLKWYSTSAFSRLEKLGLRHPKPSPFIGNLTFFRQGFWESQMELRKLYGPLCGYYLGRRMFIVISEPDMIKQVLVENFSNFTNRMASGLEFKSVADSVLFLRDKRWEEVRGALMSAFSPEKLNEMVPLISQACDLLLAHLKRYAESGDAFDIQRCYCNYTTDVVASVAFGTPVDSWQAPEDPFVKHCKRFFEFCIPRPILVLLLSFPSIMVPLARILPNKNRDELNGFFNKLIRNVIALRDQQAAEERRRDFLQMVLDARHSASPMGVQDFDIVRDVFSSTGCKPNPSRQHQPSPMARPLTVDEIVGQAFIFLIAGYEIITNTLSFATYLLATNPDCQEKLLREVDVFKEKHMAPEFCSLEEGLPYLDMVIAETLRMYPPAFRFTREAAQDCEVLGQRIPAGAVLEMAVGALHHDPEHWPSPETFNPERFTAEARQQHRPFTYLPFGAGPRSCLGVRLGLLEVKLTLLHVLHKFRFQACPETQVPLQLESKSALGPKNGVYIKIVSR", "test": "Inhibition of platelet microsomal thromboxane A synthetase in humans"}, "[4]": {"biological_target": "T1, Thromboxane-A synthase (Rattus norvegicus)", "test": "Inhibition of rat serum thromboxane A2 synthetase after 2 hr of oral administration of compound"}, "[5]": {"biological_target": "Thromboxane-A synthase (Oryctolagus cuniculus)", "test": "Inhibition of thromboxane A2 synthetase"}}, "data": [{"molecule": "O=C(O)c1ccc(OCCn2ccnc2)cc1", "note": "[DAZOXIBEN]", "values": [{"measurement": "ED50", "setting": "[1]", "result": 3.17, "unit": "µmol/kg"}, {"measurement": "ID50", "setting": "[2]", "result": 0.468, "unit": "µmol/kg"}]}, {"molecule": "O=C(O)C1=Cc2sc(Cn3ccnc3)cc2CC1", "note": "[IMITRODAST]", "values": [{"measurement": "IC50", "setting": "[3]", "result": 6, "unit": "nM"}, {"measurement": "ED50", "setting": "[1]", "result": 0.43, "unit": "µmol/kg"}, {"measurement": "ID50", "setting": "[4]", "result": 0.064, "unit": "µmol/kg"}]}, {"molecule": "O=C(O)C1CCc2cc(Cn3ccnc3)sc2C1", "note": "(centres undefined)", "values": [{"measurement": "IC50", "setting": "[3]", "result": 20, "unit": "nM"}, {"measurement": "ED50", "setting": "[1]", "result": 0.9, "unit": "µmol/kg"}, {"measurement": "IC50", "setting": "[5]", "result": 26, "unit": "nM"}, {"measurement": "ID50", "setting": "[4]", "result": 0.027, "unit": "µmol/kg"}]}]}
